Assay results taken from patent publication US11976061B2, “Preparation of benzimidazolone derivatives as novel diacylglyceride O-acyltransferase 2 inhibitors” (Merck Sharp & Dohme LLC, priority 2020, dated 2024).

Target: T1, human DGAT2 (hDGAT2) (Homo sapiens, UniProt Q96PD7)
T1 construct: made in house; host or cells: Sf-9 insect cells (baculovirus), membrane fraction
T1 sequence (Q96PD7 1-388): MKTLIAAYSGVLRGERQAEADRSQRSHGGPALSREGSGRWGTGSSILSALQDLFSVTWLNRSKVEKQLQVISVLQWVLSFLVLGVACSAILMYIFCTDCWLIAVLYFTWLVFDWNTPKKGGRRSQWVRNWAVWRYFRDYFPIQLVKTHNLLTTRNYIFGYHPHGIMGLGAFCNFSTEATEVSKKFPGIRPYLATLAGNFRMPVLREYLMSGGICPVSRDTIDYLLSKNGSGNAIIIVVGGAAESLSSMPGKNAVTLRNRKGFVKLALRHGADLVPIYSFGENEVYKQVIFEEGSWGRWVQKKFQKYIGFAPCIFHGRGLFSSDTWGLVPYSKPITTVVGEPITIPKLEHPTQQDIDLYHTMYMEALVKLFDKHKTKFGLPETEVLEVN
Assay: DGAT2 Enzymatic Activity Assay
Format: biochemical
Details: membrane prep of Sf-9 cells expressing hDGAT2; 25 μM diolein, 5 μM 13C oleoyl-CoA; 13C18-triolein by LC/MS/MS; read-out: DGAT2 IC50
Experimental: Insect Cell Expression and Membrane Preparation
Sf-9 insect cells were maintained in Grace's insect cell culture medium with 10% heated-inactivated fetal bovine serum, 1% Pluronic F-68 and 0.14 μg/ml Kanamycine sulfate at 27° C. in a shaker incubator. After infection with untagged baculovirus expressing human DGAT2 (hDGAT2) at multiplicity of infection (MOI) 3 for 48 hours, cells were harvested. Cell pellets were suspended in buffer containing 10 mM Tris-HCl pH 7.5, 1 mM EDTA, 250 mM sucrose and Complete Protease Inhibitor Cocktail (Sigma Aldrich), and sonicated on ice. Cell debris were removed by centrifugation at 2000×g for 15 minutes. Membrane fractions were isolated by ultracentrifugation (100,000×g), resuspended in the same buffer, and frozen (−80° C.) for later use. The protein concentration was determined with the Pierce™ BCA Protein Assay Kit (Thermo Fisher Scientific). Expression of protein levels was analyzed by immunoblotting with rabbit anti-DGAT2 antibody (Abcam, ab102831) and donkey anti-rabbit IgG H&L Alexa Fluor® 647 (Abcam, ab150075) followed by detection using Typhoon FLA9000 (GE Healthcare).
LC/MS/MS analyses were performed using Thermal Fisher's LX4-TSQ Vantage system. This system consists of an Agilent binary high-performance liquid chromatography (HPLC) pump and a TSQ Vantage triple quadrupole MS/MS instrument. For each sample, 2 μL samples from the top organic layer of in-plate liquid-liquid extraction were injected onto a Thermo Betabasic C4 column (2.1 mm×20 mm, 5 μm particle size). The samples were then eluted using the following conditions; mobile phase: Isopropanol:acetonitrile/10 mM ammonium formate=50/35/15 (v/v/v), flow rate: 0.8 mL/min, temperature: 25° C. Data was acquired in positive mode using a heated electrospray ionization (HESI) interface. The operational parameters for the TSQ Vantage MS/MS instrument were a spray voltage of 3000 V, capillary temperature of 280° C., vaporizer temperature 400° C., sheath gas 45 arbitrary unit, Aux gas 10 arbitrary units, S-lens 165 and collision gas 1.0 mTorr. […] (SRM) chromatograms of ^13C18-triolein (Q1: 920.8>Q3: 621.3) and internal standard ^13C21-triolein (Q1: 923.8>Q3: 617.3) were collected for 33 sec. The peak area was integrated by Xcalibur Quan software. The ratio between the ^13C18triolein generated in the reaction and spiked in internal standard ^13C21-triolein was used to generate percentage inhibition and IC50 values. Compound percentage inhibition was calculated by the following formula: Inhibition %=1−[(compound response−low control)/(high control−low control)]×100%. Potent compounds were titrated and IC50 were calculated by 4 parameter sigmoidal curve fitting formula.
DGAT2 Enzymatic Activity Assay
DGAT2 activity was determined by measuring the amount of enzymatic product ^13C18-triolein (^13C-1,2,3-Tri(cis-9-octadecenoyl)glycerol) using the membrane prep mentioned above. The assay was carried out in ABgene 384-well assay plates in a final volume of 25 μL at rt. The assay mixture contained the following: assay buffer (100 mM Tris·Cl, pH 7.0, 20 mM MgCl2, 5% ethanol), 25 μM of diolein, 5 μM of ^13C oleoyl-CoA and 8 ng/μL of DGAT2 membrane.

With `CCOc1cc(-n2c(=O)n(C(C)C(C)(C)O)c3cc(C(=O)NC4(C)CS(=O)(=O)C4)ccc32)c(F)cn1` (single isomer, unassigned) [Example 78a, 1-(2-ethoxy-5-fluoropyridin-4-yl)-3-(3-hydroxy-3-methylbutan-2-yl)-N-(3-methyl-1,1-dioxidothietan-3-yl)-2-oxo-2,3-dihydro-1H-benzo[d]imidazole-5-carboxamide] the IC50 was 123 nM.
For `CCOc1cc(-n2c(=O)n(C(C)C(C)(C)O)c3cc(C(=O)NC4(C)CS(=O)(=O)C4)ccc32)c(F)cn1` (single isomer, unassigned) [Example 78b, 1-(2-ethoxy-5-fluoropyridin-4-yl)-3-(3-hydroxy-3-methylbutan-2-yl)-N-(3-methyl-1,1-dioxidothietan-3-yl)-2-oxo-2,3-dihydro-1H-benzo[d]imidazole-5-carboxamide], the IC50 was 13 nM.

Same assay, conditions: membrane prep of Sf-9 cells expressing hDGAT2; 25 μM diolein, 5 μM 13C oleoyl-CoA; 13C18-triolein by LC/MS/MS; read-out: Human DGAT2 IC50

First: C[C@@]1(NC(=O)c2ccc3c(c2)n(-c2ccc(F)cc2)c(=O)n3-c2ccc(F)cc2)CCS(=O)(=O)C1 [Example 1, (R)-1,3-bis(4-fluorophenyl)-N-(3-methyl-1,1-dioxidotetrahydrothiophen-3-yl)-2-oxo-2,3-dihydro-1H-benzo[d]imidazole-5-carboxamide]
Second: C[C@@]1(NC(=O)c2ccc3c(c2)n(-c2ccc(F)cc2)c(=O)n3-c2cccc(OC(F)F)c2)CCS(=O)(=O)C1 [Example 3, (R)-1-(3-(difluoromethoxy)phenyl)-3-(4-fluorophenyl)-N-(3-methyl-1,1-dioxidotetrahydrothiophen-3-yl)-2-oxo-2,3-dihydro-1H-benzo[d]imidazole-5-carboxamide]
The IC50 of the first is 240-fold higher: 573 nM for the first, 2.4 nM for the second. The second is the more potent here.

Compared with `CC1(NC(=O)c2ccc3c(c2)n(-c2ccc(F)cc2)c(=O)n3-c2cccc(OC(F)F)c2)CS(=O)(=O)C1` [Example 2, 1-(3-(difluoromethoxy)phenyl)-3-(4-fluorophenyl)-N-(3-methyl-1,1-dioxidothietan-3-yl)-2-oxo-2,3-dihydro-1H-benzo[d]imidazole-5-carboxamide], `CC1(NC(=O)c2cnc3c(c2)n(-c2ccc(F)cc2)c(=O)n3-c2cccc(OC(F)F)c2)CS(=O)(=O)C1` [Example 4, 3-(3-(difluoromethoxy)phenyl)-1-(4-fluorophenyl)-N-(3-methyl-1,1-dioxidothietan-3-yl)-2-oxo-2,3-dihydro-1H-imidazo[4,5-b]pyridine-6-carboxamide] is 4.7-fold higher in IC50: 1.8 nM for the first, 8.5 nM for the second.

Compared with `CC(C)n1c(=O)n(-c2cc(OC(F)F)ncc2F)c2ccc(C(=O)NC3(C)CCS(=O)(=O)CC3)cc21` [Example 5, 1-(2-(Difluoromethoxy)-5-fluoropyridin-4-yl)-3-isopropyl-N-(4-methyl-1,1-dioxidotetrahydro-2H-thiopyran-4-yl)-2-oxo-2,3-dihydro-1H-benzo[d]imidazole-5-carboxamide], `CCOc1cc(-n2c(=O)n(C(C)C)c3cc(C(=O)NC4(C)CCS(=O)(=O)CC4)ccc32)c(F)cn1` [Example 15, 1-(2-Ethoxy-5-fluoropyridin-4-yl)-3-isopropyl-N-(4-methyl-1,1-dioxidotetrahydro-2H-thiopyran-4-yl)-2-oxo-2,3-dihydro-1H-benzo[d]imidazole-5-carboxamide] is 5.1-fold lower in IC50: 34 nM for the first, 6.7 nM for the second.

First: CC(C)Oc1cccc(-n2c(=O)n(C(C)C)c3cc(C(=O)NC4(C)CS(=O)(=O)C4)ccc32)c1 [Example 6, 1-(3-isopropoxyphenyl)-3-isopropyl-N-(3-methyl-1,1-dioxo-thietan-3-yl)-2-oxo-benzimidazole-5-carboxamide]
Second: CCOc1cccc(-n2c(=O)n(C(C)C)c3cc(C(=O)NC4(C)CS(=O)(=O)C4)ccc32)c1 [Example 9, 1-(3-ethoxyphenyl)-3-isopropyl-N-(3-methyl-1,1-dioxo-thietan-3-yl)-2-oxo-benzimidazole-5-carboxamide]
The IC50 of the first is 20-fold higher: 88 nM for the first, 4.3 nM for the second. The second is the more potent here.

Compared with `CC(C)n1c(=O)n(-c2cccc(OC(F)(F)C(F)F)c2)c2ccc(C(=O)NC3(C)CS(=O)(=O)C3)cc21` [Example 7, 3-isopropyl-N-(3-methyl-1,1-dioxo-thietan-3-yl)-2-oxo-1-[3-(1,1,2,2-tetrafluoroethoxy)phenyl]benz-imidazole-5-carboxamide], `CC(C)n1c(=O)n(-c2cccc(OCC(F)F)c2)c2ccc(C(=O)NC3(C)CS(=O)(=O)C3)cc21` [Example 8, 1-[3-(2,2-difluoroethoxy)phenyl]-3-isopropyl-N-(3-methyl-1,1-dioxo-thietan-3-yl)-2-oxo-benzimidazole-5-carboxamide] is 2.7-fold higher in IC50: 16 nM for the first, 43 nM for the second.

Compared with `CC(C)n1c(=O)n(-c2cccc(OC(F)(F)F)c2)c2ccc(C(=O)NC3(C)CCS(=O)(=O)CC3)cc21` [Example 10, 3-isopropyl-N-(4-methyl-1,1-dioxo-thian-4-yl)-2-oxo-1-[3-(trifluoromethoxy)phenyl]benz-imidazole-5-carboxamide], `CC(C)n1c(=O)n(-c2cccc(OCC(F)F)c2)c2ccc(C(=O)NC3(C)CCS(=O)(=O)CC3)cc21` [Example 11, 1-[3-(2,2-difluoroethoxy)phenyl]-3-isopropyl-N-(4-methyl-1,1-dioxo-thian-4-yl)-2-oxo-benzimidazole-5-carboxamide] is 10-fold lower in IC50: 153 nM for the first, 15 nM for the second. The second is the more potent here.

Going from `CC(C)n1c(=O)n(-c2cc(OC(F)F)ccn2)c2ccc(C(=O)NC3(C)CS(=O)(=O)C3)cc21` [Example 12, 1-[4-(difluoromethoxy)-2-pyridyl]-3-isopropyl-N-(3-methyl-1,1-dioxo-thietan-3-yl)-2-oxo-benzimidazole-5-carboxamide] to `CCOc1cc(-n2c(=O)n(C(C)C)c3cc(C(=O)NC4(C)CS(=O)(=O)C4)ccc32)c(F)cn1` [Example 16, 1-(2-ethoxy-5-fluoropyridin-4-yl)-3-isopropyl-N-(3-methyl-1,1-dioxidothietan-3-yl)-2-oxo-2,3-dihydro-1H-benzo[d]imidazole-5-carboxamide], the IC50 falls from 122 nM to 32 nM (3.8-fold).

`CC(C)n1c(=O)n(-c2cccc(C3CC3)c2)c2ccc(C(=O)NC3(C)CS(=O)(=O)C3)cc21` [Example 13, 1-(3-cyclopropylphenyl)-3-isopropyl-N-(3-methyl-1,1-dioxo-thietan-3-yl)-2-oxo-benzimidazole-5-carboxamide] and `CC(C)n1c(=O)n(-c2cccc(OC3CC3)c2)c2ccc(C(=O)NC3(C)CS(=O)(=O)C3)cc21` [Example 14, 1-[3-(cyclopropoxy)phenyl]-3-isopropyl-N-(3-methyl-1,1-dioxo-thietan-3-yl)-2-oxo-benzimidazole-5-carboxamide] are within 1.5-fold of each other in IC50: 17 nM for the first, 15 nM for the second.

Compared with `CCOc1cc(-n2c(=O)n(C(C)C)c3cc(C(=O)N[C@@]4(C)CCS(=O)(=O)C4)ccc32)c(F)cn1` [Example 17, (S)-1-(2-Ethoxy-5-fluoropyridin-4-yl)-3-isopropyl-N-(3-methyl-1,1-dioxidotetrahydrothiophen-3-yl)-2-oxo-2,3-dihydro-1H-benzo[d]imidazole-5-carboxamide], `CCOc1cc(-n2c(=O)n(C(C)C)c3cc(C(=O)N[C@]4(C)CCS(=O)(=O)C4)ccc32)c(F)cn1` [Example 18, (R)-1-(2-Ethoxy-5-fluoropyridin-4-yl)-3-isopropyl-N-(3-methyl-1,1-dioxidotetrahydrothiophen-3-yl)-2-oxo-2,3-dihydro-1H-benzo[d]imidazole-5-carboxamide] is 4.4-fold lower in IC50: 122 nM for the first, 28 nM for the second.
